Results from ChEMBL document CHEMBL1275550, “In vitro activity of doripenem, a carbapenem for the treatment of challenging infections caused by gram-negative bacteria, against recent clinical isolates from the United States” (2008).
≈ marks a conversion by molar mass, not a printed value.

How the values were obtained:
Type in all cases: functional
Proteus mirabilis [1] = assay: Antimicrobial activity against ESBL producing Proteus mirabilis by broth microdilution method
Serratia marcescens [2] = assay: Antimicrobial activity against Ceftazidime susceptible Serratia marcescens assessed as intermediate isolate by broth microdilution method
Citrobacter [3] = assay: Antimicrobial activity against Citrobacter with nonderepressed AmpC beta-lactamsae assessed as intermediate isolate by broth microdilution method
Klebsiella pneumoniae [4] = assay: Antimicrobial activity against ESBL producing Klebsiella pneumoniae by broth microdilution method
Klebsiella pneumoniae [5] = assay: Antimicrobial activity against Non-ESBL Klebsiella pneumoniae by broth microdilution method
Escherichia coli [6] = assay: Antimicrobial activity against Non-ESBL Escherichia coli assessed as susceptible isolate by broth microdilution method
Enterobacter cloacae [7] = assay: Antimicrobial activity against Enterobacter cloacae with nonderepressed AmpC beta-lactamsae assessed as resistant isolate by broth microdilution method
Escherichia coli [8] = assay: Antimicrobial activity against ESBL producing Escherichia coli assessed as resistant isolate by broth microdilution method
Enterobacter cloacae [9] = assay: Antimicrobial activity against Enterobacter cloacae with derepressed AmpC beta-lactamsae assessed as susceptible isolate by broth microdilution method
Enterobacter cloacae [10] = assay: Antimicrobial activity against Enterobacter cloacae with nonderepressed AmpC beta-lactamsae by broth microdilution method
Citrobacter [11] = assay: Antimicrobial activity against Citrobacter with derepressed AmpC beta-lactamsae assessed as susceptible isolate by broth microdilution method
Enterobacter cloacae [12] = assay: Antimicrobial activity against Enterobacter cloacae with derepressed AmpC beta-lactamsae by broth microdilution method
Enterobacteriaceae [13] = assay: Antimicrobial activity against ceftazidime-susceptible Enterobacteriaceae assessed as susceptible isolate by broth microdilution method
Escherichia coli [14] = assay: Antimicrobial activity against Non-ESBL Escherichia coli assessed as intermediate isolate by broth microdilution method
Enterobacteriaceae [15] = assay: Antimicrobial activity against Ceftazidime non-susceptible Enterobacteriaceae assessed as intermediate isolate by broth microdilution method
Serratia marcescens [16] = assay: Antimicrobial activity against Ceftazidime non-susceptible Serratia marcescens by broth microdilution method
Klebsiella pneumoniae [17] = assay: Antimicrobial activity against ESBL producing Klebsiella pneumoniae assessed as resistant isolate by broth microdilution method
Escherichia coli [18] = assay: Antimicrobial activity against ESBL producing Escherichia coli assessed as intermediate isolate by broth microdilution method
Klebsiella pneumoniae [19] = assay: Antimicrobial activity against ESBL producing Klebsiella pneumoniae assessed as susceptible isolate by broth microdilution method
Enterobacteriaceae [20] = assay: Antimicrobial activity against Ceftazidime non-susceptible Enterobacteriaceae assessed as resistant isolate by broth microdilution method
Citrobacter [21] = assay: Antimicrobial activity against Citrobacter with derepressed AmpC beta-lactamsae assessed as resistant isolate by broth microdilution method
Serratia marcescens [22] = assay: Antimicrobial activity against Ceftazidime susceptible Serratia marcescens by broth microdilution method
Serratia marcescens [23] = assay: Antimicrobial activity against Ceftazidime susceptible Serratia marcescens assessed as susceptible isolate by broth microdilution method
Klebsiella pneumoniae [24] = assay: Antimicrobial activity against Non-ESBL Klebsiella pneumoniae assessed as intermediate isolate by broth microdilution method
Citrobacter [25] = assay: Antimicrobial activity against Citrobacter with nonderepressed AmpC beta-lactamsae by broth microdilution method
Enterobacter cloacae [26] = assay: Antimicrobial activity against Enterobacter cloacae with nonderepressed AmpC beta-lactamsae assessed as susceptible isolate by broth microdilution method
Serratia marcescens [27] = assay: Antimicrobial activity against Ceftazidime non-susceptible Serratia marcescens assessed as resistant isolate by broth microdilution method
Escherichia coli [28] = assay: Antimicrobial activity against ESBL producing Escherichia coli by broth microdilution method
Proteus mirabilis [29] = assay: Antimicrobial activity against Non-ESBL Proteus mirabilis by broth microdilution method
Enterobacteriaceae [30] = assay: Antimicrobial activity against Ceftazidime non-susceptible Enterobacteriaceae assessed as susceptible isolate by broth microdilution method
Enterobacteriaceae [31] = assay: Antimicrobial activity against Ceftazidime non-susceptible Enterobacteriaceae by broth microdilution method
Klebsiella pneumoniae [32] = assay: Antimicrobial activity against ESBL producing Klebsiella pneumoniae assessed as intermediate isolate by broth microdilution method
Serratia marcescens [33] = assay: Antimicrobial activity against Ceftazidime non-susceptible Serratia marcescens assessed as intermediate isolate by broth microdilution method
Serratia marcescens [34] = assay: Antimicrobial activity against Ceftazidime susceptible Serratia marcescens assessed as resistant isolate by broth microdilution method
Proteus mirabilis [35] = assay: Antimicrobial activity against Non-ESBL Proteus mirabilis assessed as intermediate isolate by broth microdilution method
Klebsiella pneumoniae [36] = assay: Antimicrobial activity against Non-ESBL Klebsiella pneumoniae assessed as susceptible isolate by broth microdilution method
Enterobacteriaceae [37] = assay: Antimicrobial activity against ceftazidime-susceptible Enterobacteriaceae assessed as resistant isolate by broth microdilution method
Enterobacter cloacae [38] = assay: Antimicrobial activity against Enterobacter cloacae with derepressed AmpC beta-lactamsae assessed as intermediate isolate by broth microdilution method
Escherichia coli [39] = assay: Antimicrobial activity against Non-ESBL Escherichia coli assessed as resistant isolate by broth microdilution method
Enterobacteriaceae [40] = assay: Antimicrobial activity against ceftazidime-susceptible Enterobacteriaceae by broth microdilution method
Enterobacter cloacae [41] = assay: Antimicrobial activity against Enterobacter cloacae with nonderepressed AmpC beta-lactamsae assessed as intermediate isolate by broth microdilution method
Proteus mirabilis [42] = assay: Antimicrobial activity against ESBL producing Proteus mirabilis assessed as intermediate isolate by broth microdilution method
Escherichia coli [43] = assay: Antimicrobial activity against ESBL producing Escherichia coli assessed as susceptible isolate by broth microdilution method
Citrobacter [44] = assay: Antimicrobial activity against Citrobacter with derepressed AmpC beta-lactamsae by broth microdilution method
Enterobacter cloacae [45] = assay: Antimicrobial activity against Enterobacter cloacae with derepressed AmpC beta-lactamsae assessed as resistant isolate by broth microdilution method
Proteus mirabilis [46] = assay: Antimicrobial activity against Non-ESBL Proteus mirabilis assessed as susceptible isolate by broth microdilution method
Proteus mirabilis [47] = assay: Antimicrobial activity against ESBL producing Proteus mirabilis assessed as susceptible isolate by broth microdilution method
Escherichia coli [48] = assay: Antimicrobial activity against Non-ESBL Escherichia coli by broth microdilution method
Citrobacter [49] = assay: Antimicrobial activity against Citrobacter with nonderepressed AmpC beta-lactamsae assessed as susceptible isolate by broth microdilution method
Serratia marcescens [50] = assay: Antimicrobial activity against Ceftazidime non-susceptible Serratia marcescens assessed as susceptible isolate by broth microdilution method
Enterobacteriaceae [51] = assay: Antimicrobial activity against ceftazidime-susceptible Enterobacteriaceae assessed as intermediate isolate by broth microdilution method
Staphylococcus [52] = assay: Antimicrobial activity against methicillin-susceptible coagulase-negative Staphylococcus assessed as susceptible isolate by broth microdilution method
Streptococcus pneumoniae [53] = assay: Antimicrobial activity against penicillin-susceptible Streptococcus pneumoniae by broth microdilution method
Streptococcus pneumoniae [54] = assay: Antimicrobial activity against penicillin-intermediate Streptococcus pneumoniae assessed as intermediate isolate by broth microdilution method
Staphylococcus aureus [55] = assay: Antimicrobial activity against methicillin-susceptible Staphylococcus aureus assessed as susceptible isolate by broth microdilution method
Staphylococcus aureus [56] = assay: Antimicrobial activity against methicillin-susceptible Staphylococcus aureus by broth microdilution method
Streptococcus pneumoniae [57] = assay: Antimicrobial activity against penicillin-resistant Streptococcus pneumoniae by broth microdilution method
Staphylococcus [58] = assay: Antimicrobial activity against methicillin-susceptible coagulase-negative Staphylococcus by broth microdilution method
Streptococcus pneumoniae [59] = assay: Antimicrobial activity against […] assessed as susceptible isolate by broth microdilution method
Streptococcus pneumoniae [60] = assay: Antimicrobial activity against penicillin-resistant Streptococcus pneumoniae assessed as resistant isolate by broth microdilution method
[61] = Streptococcus pneumoniae, read-out: MIC90

CO/N=C(\C(=O)N[C@@H]1C(=O)N2C(C(=O)O)=C(CSc3nc(=O)c(O)nn3C)CS[C@H]12)c1csc(N)n1 [CEFTRIAXONE]
MIC (Proteus mirabilis [1]): 0.06 µg/mL (≈ 0.108 µM)
Activity (Serratia marcescens [2]): 1.4%
Activity (Citrobacter [3]): 1.1%
MIC50 (Klebsiella pneumoniae [4]): 64 µg/mL (≈ 115 µM)
MIC90 (Klebsiella pneumoniae [4]): > 64 µg/mL
MIC50 (Klebsiella pneumoniae [5]): 0.03 µg/mL (≈ 0.0541 µM)
MIC90 (Klebsiella pneumoniae [5]): 0.12 µg/mL (≈ 0.216 µM)
Activity (Escherichia coli [6]): 98.7%
Activity (Enterobacter cloacae [7]): 3.5%
Activity (Escherichia coli [8]): 66.7%
Activity (Enterobacter cloacae [9]): 0%
MIC50 (Enterobacter cloacae [10]): 0.25 µg/mL (≈ 0.451 µM)
MIC90 (Enterobacter cloacae [10]): 4 µg/mL (≈ 7.21 µM)
Activity (Citrobacter [11]): 1.8%
MIC50 (Enterobacter cloacae [12]): > 64 µg/mL
MIC90 (Enterobacter cloacae [12]): > 64 µg/mL
Activity (Enterobacteriaceae [13]): 99.3%
Activity (Escherichia coli [14]): 1.1%
Activity (Enterobacteriaceae [15]): 26.9%
MIC50 (Serratia marcescens [16]): 64 µg/mL (≈ 115 µM)
MIC90 (Serratia marcescens [16]): > 64 µg/mL
Activity (Klebsiella pneumoniae [17]): 72.7%
Activity (Escherichia coli [18]): 13.3%
Activity (Klebsiella pneumoniae [19]): 9.1%
Activity (Enterobacteriaceae [20]): 65.4%
Activity (Citrobacter [21]): 54.5%
MIC50 (Serratia marcescens [22]): 0.25 µg/mL (≈ 0.451 µM)
MIC90 (Serratia marcescens [22]): 1 µg/mL (≈ 1.8 µM)
Activity (Serratia marcescens [23]): 98.1%
Activity (Klebsiella pneumoniae [24]): 0.3%
MIC50 (Citrobacter [25]): 0.12 µg/mL (≈ 0.216 µM)
MIC90 (Citrobacter [25]): 0.5 µg/mL (≈ 0.902 µM)
Activity (Enterobacter cloacae [26]): 91.9%
Activity (Serratia marcescens [27]): 60%
MIC50 (Escherichia coli [28]): > 64 µg/mL
MIC90 (Escherichia coli [28]): > 64 µg/mL
MIC (Proteus mirabilis [29]): ≤ 0.015 µg/mL
MIC50 (Proteus mirabilis [29]): ≤ 0.015 µg/mL
MIC90 (Proteus mirabilis [29]): ≤ 0.015 µg/mL
Activity (Enterobacteriaceae [30]): 7.6%
MIC50 (Enterobacteriaceae [31]): > 64 µg/mL
MIC90 (Enterobacteriaceae [31]): > 64 µg/mL
Activity (Klebsiella pneumoniae [32]): 8.2%
Activity (Serratia marcescens [33]): 30%
Activity (Serratia marcescens [34]): 0.6%
Activity (Proteus mirabilis [35]): 0.3%
Activity (Klebsiella pneumoniae [36]): 99.3%
Activity (Enterobacteriaceae [37]): 0.3%
Activity (Enterobacter cloacae [38]): 6.8%
Activity (Escherichia coli [39]): 0.2%
MIC50 (Enterobacteriaceae [40]): 0.03 µg/mL (≈ 0.0541 µM)
MIC90 (Enterobacteriaceae [40]): 0.25 µg/mL (≈ 0.451 µM)
Activity (Enterobacter cloacae [41]): 4.7%
Activity (Proteus mirabilis [42]): 0%
Activity (Escherichia coli [43]): 20%
MIC50 (Citrobacter [44]): 64 µg/mL (≈ 115 µM)
MIC90 (Citrobacter [44]): > 64 µg/mL
Activity (Enterobacter cloacae [45]): 93.2%
Activity (Proteus mirabilis [46]): 99.7%
Activity (Proteus mirabilis [47]): 100%
MIC50 (Escherichia coli [48]): 0.03 µg/mL (≈ 0.0541 µM)
MIC90 (Escherichia coli [48]): 0.06 µg/mL (≈ 0.108 µM)
Activity (Citrobacter [49]): 97.8%
Activity (Serratia marcescens [50]): 10%
Activity (Enterobacteriaceae [51]): 0.4%

C[C@@H](O)[C@H]1C(=O)N2C(C(=O)O)=C(S[C@@H]3CN[C@H](C(=O)Nc4cccc(C(=O)O)c4)C3)[C@H](C)[C@H]12
Activity (Staphylococcus [52]): 99.4%
MIC90 (Streptococcus pneumoniae [53]): 0.03 µg/mL (≈ 0.0631 µM)
MIC90 (Streptococcus pneumoniae [53]; [61]): 0.03 µg/mL (≈ 0.0631 µM)
Activity (Streptococcus pneumoniae [54]): 94.5%
Activity (Staphylococcus aureus [55]): 99.4%
MIC90 (Staphylococcus aureus [56]): 0.5 µg/mL (≈ 1.05 µM)
MIC90 (Staphylococcus aureus [56]; Staphylococcus aureus, read-out: MIC90): 0.25 µg/mL (≈ 0.526 µM)
MIC90 (Streptococcus pneumoniae [57]): 2 µg/mL (≈ 4.21 µM)
MIC90 (Streptococcus pneumoniae [57]; [61]): 2 µg/mL (≈ 4.21 µM)
MIC90 (Staphylococcus [58]): 0.5 µg/mL (≈ 1.05 µM)
MIC90 (Staphylococcus [58]; Staphylococcus, read-out: MIC90): 0.25 µg/mL (≈ 0.526 µM)
Activity (Streptococcus pneumoniae [59]): 100%
Activity (Streptococcus pneumoniae [60]): 39.6%
